# Assay results taken from patent publication US11753407B2, “Compounds for treating spinal muscular atrophy” (PTC Therapeutics, Inc., priority 2012, dated 2023).
# Columns and labels:
# [1] = tested on: Smn protein in SMA patient fibroblast cells (GM03813); assay: Smn protein assay in cultured cells (SMN HTRF); assay type: cell-based, human; settings: SMA patient fibroblast cells, 48 hours; for EC1.5x for Smn protein expression: 7-point concentration curve, SMN HTRF, concentration producing 1.5 times Smn protein vs DMSO vehicle control; for maximum fold (Fold) increase of Smn protein: 7-point concentration data, fold relative to vehicle control
# How it was run: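 SMA patient fibroblasts (5,000 cells/well, DMEM-10% FBS) were treated for 48 h at 37 °C with a 7-point, 3.16-fold dilution series in triplicate. RIPA lysates were probed by HTRF (anti-SMN d2/kryptate, overnight, room temperature), reading 665/620 nm. EC1.5× is the concentration giving 1.5-fold Smn over DMSO vehicle.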
# [2] = tested on: SMN2 minigene mRNA (SMN2-A minigene) in HEK293H cells; assay: SMN2 minigene mRNA splicing RT-qPCR assay in cultured cells; assay type: cell-based, human; settings: Homo sapiens, HEK293-H; concentration increasing full length SMN2 mRNA 1.5-fold relative to vehicle-treated cells; HEK293H cells with SMN2-A minigene, 24 hours, 7-point concentration data; read-out: EC1.5x for production of full length SMN2 mRNA
# How it was run: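 HEK293H cells stably carrying the SMN2-A minigene were treated for 24 h at 37 °C with a 7-point, 3.16-fold dilution series of compound. Multiplex RT-qPCR measured exon 7-containing minigene FL mRNA against GAPDH, expressed relative to vehicle by modified ΔΔCt; the EC1.5× is the concentration giving a 1.5-fold increase.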
Compound,EC1.5x for Smn protein expression [1],maximum fold (Fold) increase of Smn protein [1],melting point [°C],EC (1.5-fold increase) [2] [µM]
"Cn1cc2cc(-c3cc(=O)n4cc(C5=CCNCC5)ccc4n3)ccc2n1 [Compound 474, 2-(2-methyl-2H-indazol-5-yl)-7-(1,2,3,6-tetrahydropyridin-4-yl)-4H-pyrido[1,2-a]pyrimidin-4-one]",**** (an EC1.5x≤0.3 μM is indicated by four stars (****)),**** (a fold increase between >1.5 and ≤1.65 is indicated by four stars (****)),239 to 241,< 0.1
"CN1CCC(c2ccc3nc(-c4ccc5c(cnn5C)c4)cc(=O)n3c2)CC1 [Compound 475, 2-(1-methyl-1H-indazol-5-yl)-7-(1-methylpiperidin-4-yl)-4H-pyrido[1,2-a]pyrimidin-4-one]",** (an EC1.5× between >1 μM and ≤3 μM is indicated by two stars (**)),*** (a fold increase between >1.35 and ≤1.5 is indicated by three stars (***)),216 to 218,0.3 to 1
"CN1CC=C(c2ccc3nc(-c4ccc5nn(C)cc5c4)cc(=O)n3c2)CC1 [Compound 476, 2-(2-methyl-2H-indazol-5-yl)-7-(1-methyl-1,2,3,6-tetrahydropyridin-4-yl)-4H-pyrido[1,2-a]pyrimidin-4-one]",**** (an EC1.5x≤0.3 μM is indicated by four stars (****)),***** (a fold increase >1.65 is indicated by five stars (*****)),226 to 228,< 0.1
"CCN1CC=C(c2ccc3nc(-c4ccc5nn(C)cc5c4)cc(=O)n3c2)CC1 [Compound 477, 7-(1-ethyl-1,2,3,6-tetrahydropyridin-4-yl)-2-(2-methyl-2H-indazol-5-yl)-4H-pyrido[1,2-a]pyrimidin-4-one]",**** (an EC1.5x≤0.3 μM is indicated by four stars (****)),**** (a fold increase between >1.5 and ≤1.65 is indicated by four stars (****)),198 to 200,< 0.1
"CCN1CCC(c2ccc3nc(-c4ccc5nc(C)cn5c4)cc(=O)n3c2)CC1 [Compound 478, 7-(1-ethylpiperidin-4-yl)-2-(2-methylimidazo[1,2-a]pyridin-6-yl)-4H-pyrido[1,2-a]pyrimidin-4-one]",**** (an EC1.5x≤0.3 μM is indicated by four stars (****)),***** (a fold increase >1.65 is indicated by five stars (*****)),190 to 192,< 0.1
"Cc1cn2cc(-c3cc(=O)n4cc(C5=CCN(C(C)C)CC5)ncc4n3)cc2c(C)n1 [Compound 479, 2-(1,3-dimethylpyrrolo[1,2-a]pyrazin-7-yl)-7-[1-(propan-2-yl)-1,2,3,6-tetrahydropyridin-4-yl]-4H-pyrazino[1,2-a]pyrimidin-4-one]",–,** (a fold increase between >1.2 and ≤1.35 is indicated by two stars (**)),220 to 222,< 0.1
"Cc1cn2nc(-c3cc(=O)n4cc(C5=CCNCC5)cc(C)c4n3)cc2c(C)n1 [Compound 480, 2-(4,6-dimethylpyrazolo[1,5-a]pyrazin-2-yl)-9-methyl-7-(1,2,3,6-tetrahydropyridin-4-yl)-4H-pyrido[1,2-a]pyrimidin-4-one]",**** (an EC1.5x≤0.3 μM is indicated by four stars (****)),***** (a fold increase >1.65 is indicated by five stars (*****)),> 300,< 0.1
"Cc1cn2nc(-c3cc(=O)n4cc(C5=CCN(C)CC5)ccc4n3)cc2cn1 [Compound 484, 2-(6-methylpyrazolo[1,5-a]pyrazin-2-yl)-7-(1-methyl-1,2,3,6-tetrahydropyridin-4-yl)-4H-pyrido[1,2-a]pyrimidin-4-one]",**** (an EC1.5x≤0.3 μM is indicated by four stars (****)),***** (a fold increase >1.65 is indicated by five stars (*****)),126 to 128,< 0.1
